Source: patent publication US11231416B2, “Virus-like particle (VLP) based small molecule-protein interaction trap” (VIB VZW, priority 2015, dated 2022)

Target: T1, HSD17B4 (Homo sapiens, UniProt P51659)
T1 construct: endogenous in cells; host or cells: HEK293T
T1 sequence (P51659 1-736): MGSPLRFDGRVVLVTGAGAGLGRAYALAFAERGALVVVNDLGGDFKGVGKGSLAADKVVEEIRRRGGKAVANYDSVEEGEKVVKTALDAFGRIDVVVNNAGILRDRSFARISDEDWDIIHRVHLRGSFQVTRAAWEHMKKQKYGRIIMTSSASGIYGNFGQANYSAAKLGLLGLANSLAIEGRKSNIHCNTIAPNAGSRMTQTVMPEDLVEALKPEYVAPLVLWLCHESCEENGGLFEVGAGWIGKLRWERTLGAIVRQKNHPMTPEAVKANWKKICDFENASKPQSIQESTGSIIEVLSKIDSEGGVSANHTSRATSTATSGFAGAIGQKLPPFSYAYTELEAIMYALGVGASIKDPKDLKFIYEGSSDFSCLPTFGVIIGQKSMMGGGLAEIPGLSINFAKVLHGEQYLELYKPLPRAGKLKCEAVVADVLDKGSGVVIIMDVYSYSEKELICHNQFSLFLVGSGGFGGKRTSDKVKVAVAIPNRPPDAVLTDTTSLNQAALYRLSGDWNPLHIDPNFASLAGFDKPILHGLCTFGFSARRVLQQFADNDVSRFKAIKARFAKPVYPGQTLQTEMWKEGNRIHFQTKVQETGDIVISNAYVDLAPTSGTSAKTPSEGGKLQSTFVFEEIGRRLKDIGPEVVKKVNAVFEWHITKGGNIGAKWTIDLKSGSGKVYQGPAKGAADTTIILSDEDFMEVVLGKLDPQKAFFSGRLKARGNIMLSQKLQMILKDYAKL
Assay: Binary MASPIT assay
Type: cell-based
Conditions: binary MASPIT assay
Procedure: The binding of HSD17B4 to tamoxifen was further confirmed using the MASPIT technology. The binary MASPIT assay was essentially performed as described before (Risseeuw et al., 2013). Briefly, HEK293T cells were seeded in black tissue-culture treated 96-well plates at 10.000 cells/well in 100 μl culture medium (DMEM supplemented with 10% fetal calf serum), and grown at 37° C., 8% CO2. Twenty-four hours later cells were transfected with a combination of the pCLG-eDHFR plasmid (Risseeuw et al., 2013), the pMG1-HSD17B4 construct and the pXP2d2-rPAP1-luciferase reporter (Caligiuri et al., 2006). The pMG1-HSD17B4 construct was generated by Gateway transfer of the full size HSD17B4 ORF, obtained as an entry clone in the hORFeome collection, into the Gateway compatible pMG1 prey destination vector as described earlier (Lievens et al., 2009). Twenty-four hours after transfection, cells were either left unstimulated or treated with 100 ng/ml leptin, with or without addition of MTX-PEG6-tamoxifen. Another 24 hours later, luciferase activity was assayed using the Luciferase Assay System kit (Promega).

interaction between tamoxifen and HSD17B4: confirmed
Compound: CC/C(=C(\c1ccccc1)c1ccc(OCCN(C)C)cc1)c1ccccc1 [tamoxifen, reference compound]
